Measurements reported in EP0583821A1, “Atriopeptins, guanylate cyclase activators, and phosphodiesterase inhibitors as treatment for glaucoma, hydrocephalus and cerebral edema (cranial fluid volume dysfunction)” (THE GENERAL HOSPITAL CORPORATION, priority 1987, dated 1988).

Legend:
rabbits = test: Intraocular pressure and ocular observations after topical (eye drop) application; assay type: in vivo, rabbit
Experimental: The measurement of intraocular pressure (IOP), was performed using procedures similar to those described in Nathanson, Brit. J. Pharmacol., 73:97 (1981) and Nathanson, Current Eye Res., 4:191 (1985). Briefly, male (3-5 kg), New Zealand white rabbits were housed under standard conditions and exposed to a 12 hr light-dark cycle. IOP was measured with a Perkins applanation tonometer after topical anesthesia with 0.4% benoxinate (and 0.25% sodium fluorescein). The tonometer had been calibrated previously by connecting the anterior chamber of enucleated rabbit eyes to a manometer (and reservoir) and taking tonometer readings at different pressures. A number of preliminary IOP readings were made in order to accommodate the animals to the measurement procedure. Readings were then taken just prior to drug or vehicle injection and at 3, 9, 20, 27, 44, 51, 72, and 144 hours post-injection.
A potent PDE inhibitor of the arylxanthine class, 1,3-dibutylxanthine, was applied unilaterally and topically to rabbit eyes in a 0.5% solution. […] The IOP was decreased 4 mm (Hg) in the ipsilateral eye (Figure 8).
(§1) Again there was about a 4 mm (Hg) decrease in intraocular pressure. […] This xanthine inhibited the enzyme with an IC₅₀ (concentration necessary for 50% enzyme inhibition) of 25 uM.
The effect of nitroglycerine eye drops on rabbit intraocular pressure was also measured. The IOP of 8 conscious, male albino rabbits (3-4 kg) was measured by applanation pnumatonometry after topical anesthesia with 0.4% benoxinate. Nitroglycerine in phosphate buffered saline, pH 7.4, was given unilaterally, in two 25µl drops spaced five minutes apart. Blood pressure and pulse rate were measured by a photoelectric detector using an automated external tail cuff. […] By 24 hours, pressure had returned to normal.

adenylate cyclase = test: Adenylate cyclase activity in P1 fractions of whole choroid; assay type: biochemical, rabbit; settings: rANP at high concentrations
Experimental: The effect of rANP on membrane-bound guanylate cyclase and adenylate cyclase activity in various brain-barrier tissues and tissue fractions from rabbit was compared with its activity in cerebrum and cerebellum. Guanylate cyclase was measured as the rate of cyclic GMP formation by modifications of the technique of Waldman et al., supra, incorporated herein by reference. Briefly, tissues were homogenized (10 mg wet weight per milliliter) in 50 mM tris-HCl, pH 8.0, 1 mM EDTA, 1 mM dithiothreitol, and 250 mM sucrose and centrifuged at 100,000g to obtain a P1 pellet. Reaction tubes contained (in 0.3 ml), 50 mM tris, pH 7.6, 6 mM MnCl₂, 0.5 mM 3-isobutyl, 1-methylxanthine (IBMX), 10 mM theophylline, 3 mM GTP, hormone (in 0.03 ml containing 2.5 mM ascorbic acid and 0.1% bovine serum albumin), and 0.06 ml of P1 fraction (40 to 60 ug of protein). The reaction (4 minutes at 30°C) was started by addition of GTP and terminated by addition of 0.3 ml of 150 mM sodium acetate (pH 4.0) and boiling for 3 minutes. Cyclic GMP formed was subsequently measured by radioimmunoassay as described in example 6, infra. Under these conditions, guanylate cyclase activity was linear with time and tissue concentration. Adenylate cyclase activity in P1 fractions was measured according to the method described by Nathanson, et al., Science; 204:843 (1979); Mol. Pharmacol. 18:199 (1980), see Figure 1C . […] Neurosci. […]

cGMP phosphodiesterase = test: Inhibition of cGMP phosphodiesterase in ciliary process; assay type: biochemical; settings: Fig. 9B, read-out: IC₅₀ (concentration necessary for 50% enzyme inhibition)
From the text: The ability of any compound to inhibit cGMP phosphodiesterase (PDE) activity in broken-cell preparations of choroid epithelial cells or ciliary process can be determined either 1) by measuring the decrease in rate of hydrolysis of an added amount of cyclic GMP by PDE (see, Methods Section of Nathanson et al., Mol. Pharmacol. 12:390-398 (1975)), or 2) by measuring the rate of accumulation of one of the breakdown products of cyclic GMP, such as 5'-GMP or guanosine (see method of Filburn et al., Anal. Biochem. 52:505-516 (1973)). Both of these are herein incorporated by reference.
as §1

guanylate cyclase [1] = molecular target: T1, guanylate cyclase (Oryctolagus cuniculus, UniProt G1TXB5); test: Atriopeptin-activated guanylate cyclase in ciliary process membrane (P1) fractions; assay type: biochemical, rabbit; design: tissues were homogenized (10 mg wet weight per milliliter); from tissue; host or cells: rabbit cerebral microvessels, choroid plexus, kidney, ciliary process, pia-arachnoid, cerebellum; 100,000 g P1 pellet; settings: mean ± range of duplicate determinations
T1 sequence (G1TXB5 28-1056): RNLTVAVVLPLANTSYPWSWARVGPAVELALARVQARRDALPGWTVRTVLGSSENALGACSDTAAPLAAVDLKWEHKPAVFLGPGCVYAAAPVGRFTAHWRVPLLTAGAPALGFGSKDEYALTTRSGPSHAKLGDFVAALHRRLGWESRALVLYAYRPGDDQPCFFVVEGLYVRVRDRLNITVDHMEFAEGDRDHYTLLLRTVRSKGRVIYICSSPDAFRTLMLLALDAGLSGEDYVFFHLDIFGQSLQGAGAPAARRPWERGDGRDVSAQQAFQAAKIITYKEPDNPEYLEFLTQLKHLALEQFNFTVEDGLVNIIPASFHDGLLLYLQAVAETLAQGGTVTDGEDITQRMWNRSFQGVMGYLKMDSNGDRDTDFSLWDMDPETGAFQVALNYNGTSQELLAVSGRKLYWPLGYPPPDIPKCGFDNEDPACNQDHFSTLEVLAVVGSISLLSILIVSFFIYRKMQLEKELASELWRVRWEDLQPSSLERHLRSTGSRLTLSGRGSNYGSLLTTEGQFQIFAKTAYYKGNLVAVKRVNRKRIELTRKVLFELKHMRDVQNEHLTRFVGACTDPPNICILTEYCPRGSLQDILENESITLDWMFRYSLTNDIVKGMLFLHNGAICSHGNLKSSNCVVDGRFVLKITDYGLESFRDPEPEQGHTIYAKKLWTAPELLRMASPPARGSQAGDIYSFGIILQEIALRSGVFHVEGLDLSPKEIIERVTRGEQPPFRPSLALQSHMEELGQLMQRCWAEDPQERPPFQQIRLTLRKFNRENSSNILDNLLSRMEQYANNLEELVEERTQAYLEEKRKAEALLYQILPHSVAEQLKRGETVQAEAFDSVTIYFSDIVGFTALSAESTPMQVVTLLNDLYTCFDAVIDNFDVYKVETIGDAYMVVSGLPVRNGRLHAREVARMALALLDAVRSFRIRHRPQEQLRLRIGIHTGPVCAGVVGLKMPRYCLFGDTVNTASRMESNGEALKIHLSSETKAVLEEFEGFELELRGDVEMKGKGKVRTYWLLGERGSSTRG
Experimental: Ciliary process tips were obtained from male, 3-4 kg, New Zealand white rabbits, immediately following sacrifice with an overdose of ether, as described in Nathanson, Invest. Ophthal. Vis. Sci., 21:7981 (1982). The tissue was minced and homogenized (10 mg/ml) by hand in a glass-glass homogenizer in a buffer consisting of 50 mM Tris HCl, pH 8.0; 1mM EDTA, and 250mM sucrose. The homogenate was diluted 30-fold with buffer and centrifuged at 100,000 x g, to obtain a P1 fraction. The pellet was rehomogenized in the original volume and left on ice until use. P1 fractions were also prepared from wedges of rabbit kidney taken from the same animals. In some experiments, P1 fractions were prepared from iris and from ciliary body, as described in Nathanson, Proc. Natl. Acad. Sci. USA, 77:7420 (1980). Briefly, iris was removed from its attachment to the ciliary body, cleaned of adhering ciliary process tissue, washed, and homogenized as above. The ciliary muscle was cleaned of most remaining ciliary process tissue, freed from the underlying sclera by blunt and sharp dissection, and then washed and homogenized.
(§2) Atriopeptin-activated guanylate cyclase activity was measured as the rate of conversion of GTP to cyclic GMP. […]
For RIA, each tube contained (in 0.5ml), 50mM sodium acetate buffer (pH 6.2), 2mM EDTA, 1mg/ml bovine serum albumin, 0.1 ml of sample (or diluted sample), 8,000-15,000 cpm (about 5 fmole) of ¹²⁵I succinyl cyclic GMP tyrosine methyl ester, and antibody to bind 25-35% of the label. […] Activation constants (Ka) were determined from dose-response curves utilizing 12-14 data points (6-7 concentrations of hormone, in duplicate), each point representing the mean of triplicate RIA determinations.
Atriopeptin-activated guanylate cyclase activity was measured, as described in Example 5, in membranes from rabbit kidney and ciliary process prepared as in Example 4. […]

guanylate cyclase [2] = molecular target: T1, guanylate cyclase; test: Atriopeptin-activated guanylate cyclase in kidney membrane (P1) fractions; assay type: biochemical, rabbit; design: tissues were homogenized (10 mg wet weight per milliliter); from tissue; host or cells: rabbit cerebral microvessels, choroid plexus, kidney, ciliary process, pia-arachnoid, cerebellum; 100,000 g P1 pellet; settings: mean ± range of duplicate determinations
Experimental: The effect of rANP on membrane-bound guanylate cyclase and adenylate cyclase activity in various brain-barrier tissues and tissue fractions from rabbit was compared with its activity in cerebrum and cerebellum. Guanylate cyclase was measured as the rate of cyclic GMP formation by modifications of the technique of Waldman et al., supra, incorporated herein by reference. Briefly, tissues were homogenized (10 mg wet weight per milliliter) in 50 mM tris-HCl, pH 8.0, 1 mM EDTA, 1 mM dithiothreitol, and 250 mM sucrose and centrifuged at 100,000g to obtain a P1 pellet. Reaction tubes contained (in 0.3 ml), 50 mM tris, pH 7.6, 6 mM MnCl₂, 0.5 mM 3-isobutyl, 1-methylxanthine (IBMX), 10 mM theophylline, 3 mM GTP, hormone (in 0.03 ml containing 2.5 mM ascorbic acid and 0.1% bovine serum albumin), and 0.06 ml of P1 fraction (40 to 60 ug of protein). The reaction (4 minutes at 30°C) was started by addition of GTP and terminated by addition of 0.3 ml of 150 mM sodium acetate (pH 4.0) and boiling for 3 minutes. Cyclic GMP formed was subsequently measured by radioimmunoassay as described in example 6, infra. Under these conditions, guanylate cyclase activity was linear with time and tissue concentration. Adenylate cyclase activity in P1 fractions was measured according to the method described by Nathanson, et al., Science; 204:843 (1979); Mol. Pharmacol. 18:199 (1980), see Figure 1C . […] Neurosci. Abstr., 10, 899 (1984); Nathanson, et al., Soc. Neurosci. Abstr., 12, 1257 (1986), incorporated herein by reference, but with a lower concentration (0.025%) of trypsin and a rotating tissue tumbler which allowed cleaner fractionation of epithelial cells from erythrocytes and vascular components.
Ciliary process tips were obtained from male, 3-4 kg, New Zealand white rabbits, immediately following sacrifice with an overdose of ether, as described in Nathanson, Invest. Ophthal. Vis. Sci., 21:7981 (1982). […]
as §2

guanylate cyclase [3] = test: Ciliary process guanylate cyclase activity (Tables 2 and 3); assay type: biochemical; settings: Table 3; concentration not given

`CCCCn1c(=O)c2[nH]cnc2n(CCCC)c1=O` [1,3-dibutylxanthine] was tested, and the “IOP in the contralateral eye” value (rabbits; 0.5% solution, unilateral topical) was “small decrease” and the “decrease of IOP in the ipsilateral eye” value (rabbits; 0.5% solution, unilateral topical, rabbit eyes) was 4 mm (Hg).

With `CC(C)NCC(O)c1ccc(O)c(O)c1` (stereo not drawn) [isoproterenol] the “effect on adenylate cyclase activity” value (adenylate cyclase) was “stimulated”.

In the case of `CC(C)Cn1c(=O)n(C)c(=O)c2[nH]cnc21` [1-methyl-3-isobutyl-xanthine], the “decrease in intraocular pressure” value (rabbits; topical administration, Fig. 9A) is reported as ~4 mm (Hg) and the IC50 (cGMP phosphodiesterase) is reported as 25 µM.

With “rANP 1-11 (SLRRSSCFGGR; Atrial natriuretic peptide; UniProt P01161 123-133, looked up, fragment)” the “Vmax Stimulation (%) of Guanylate Cyclase Ciliary Process” value (guanylate cyclase [1]) was 4 ± 6% and the “Vmax Stimulation (%) of Guanylate Cyclase Kidney” value (guanylate cyclase [2]) was 25 ± 6%.

sodium nitrate [COMPOUND "N"] was tested, and the “effect on IOP” value (rabbits; 0.1% eye drop preparation, rabbits) was “lowers IOP” and the “CILIARY PROCESS GUANYLATE CYCLASE ACTIVITY (Percent Increase)” value (guanylate cyclase [3]) was 46 Percent Increase.
